Drawing on patent US7842685B2, “S1P1 receptor agonists and use thereof” (Amgen Inc., priority 2008, dated 2010), this text covers Emax and EC50 for 25 compounds.

For the assay, the target named is T1, hS1P1 receptor (Homo sapiens, UniProt P21453).
T1 construct: host or cells: U2OS
As to the kind of experiment: hS1P1 receptor internalization assay (cell imaging-based, hS1P1-eGFP U2OS cells). Particulars: U2OS cell line expressing hS1P1-eGFP, compounds incubated at 37° C. for one hour; for Emax: 1 h, efficacy (Max), read-out: hS1P1 Receptor Internalization (biolimaging) Max (%); for EC50: GFP-containing endosomes per cell (ArrayScan), read-out: hS1P1 Receptor Internalization (bioimaging) EC50 IP. The method, then: The activity of compounds of the invention was determined by a cell imaging-based assay measuring the degree of hS1P1 receptor internalization and a Ca^2+ mobilization assay measuring the level of S1P receptor activation. The receptor internalization assay was employed to determine the potency and efficacy of compounds on hS1P1 receptor, while Ca^2+ mobilization assay was used to determine selectivity among different S1P receptors and activity on S1P receptors from species such as rat, dog, and cyno. The hS1P1 receptor internalization assay was performed using a U2OS cell line expressing hS1P1-eGFP chimeric protein (Thermo Scientific, Soeborg, Denmark). Upon compound treatment, the hS1P1 receptor was internalized in cytoplasma and formed GFP-containing-endosomes. This event was detected by an automated microscope, ArrayScan (Thermo Scientific Cellomics, Pittsburg), and the degree of receptor internalization is quantitated by counting green fluorescent GFP-containing endosomes per cell. In this assay, hS1P1-eGFP expressing U2OS cells were starved in serum free media for two hours prior to compound treatment. Then compounds were incubated with the starved cells at 37° C. for one hour. Subsequently, compound-treated cells were fixed using 4% formaldehyde, and the nuclei were stained using Hoechst. Then the cells were imaged in ArrayScan. The potency and efficacy of the compounds were determined by plotting the number of green fluorescent GFP-containing endosomes per cell against corresponding compound concentration.

SMILES strings stand for the structures. Where a name gives a salt, the structure may show the parent alone.

T1 sequence (P21453 whole entry): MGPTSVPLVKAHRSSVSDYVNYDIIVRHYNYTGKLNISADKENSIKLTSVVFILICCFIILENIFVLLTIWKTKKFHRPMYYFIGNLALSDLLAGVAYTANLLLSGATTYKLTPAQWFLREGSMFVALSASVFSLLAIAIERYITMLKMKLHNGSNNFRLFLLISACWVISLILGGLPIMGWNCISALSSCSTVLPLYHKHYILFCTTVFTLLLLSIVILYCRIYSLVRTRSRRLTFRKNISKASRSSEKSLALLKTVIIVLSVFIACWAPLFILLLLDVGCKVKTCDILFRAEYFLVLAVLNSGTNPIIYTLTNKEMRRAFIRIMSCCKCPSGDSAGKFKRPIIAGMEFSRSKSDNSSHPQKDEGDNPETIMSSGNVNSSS

The term EC50 denotes the concentration giving half of the maximal effect. For the compound `NC(CO)(CCc1ccc(-c2nc3ccc(C4(c5ccccc5)CC4)nc3s2)c(F)c1)COP(=O)(O)O` (racemic) [Example 43, (rac)-2-amino-4-(3-fluoro-4-(5-(1-phenylcyclopropyl)thiazolo[5,4-b]pyridine-2-yl)phenyl)-2-(hydroxymethyl)butyl dihydrogen phosphate], the Emax turned out to be 122% and the EC50 worked out at 0.3 nM.
The corresponding values for `O=C(O)C1CN(Cc2ccc(-c3nc4ccc(C5(c6ccccc6)CC5)nc4s3)c(F)c2)C1` [Example 1, 1-((3-fluoro-4-(5-(1-phenylcyclopropyl)thiazolo[5,4-b]pyridin-2-yl)-phenyl)methyl)azetidine-3-carboxylic acid] are 98% and 2.5 nM.
The corresponding values for `O=C(O)C1(F)CN(Cc2ccc(-c3nc4ccc(C5(c6ccccc6)CC5)nc4s3)c(F)c2)C1` [Example 4, 3-fluoro-1-((3-fluoro-4-(5-(1-phenylcyclopropyl)thiazolo[5,4-b]pyridine-2-yl)phenyl)methyl)azetidine-3-carboxylic acid hydrochloride] are 121% and 1.2 nM.
The corresponding values for `O=C(O)C1CN(Cc2ccc(-c3nc4ccc(C5(c6ccccc6)CC=CC5)nc4s3)c(F)c2)C1` [Example 5, 1-((3-fluoro-4-(5-(1-phenylcyclopent-3-enyl)thiazolo[5,4-b]pyridine-2-yl)phenyl)methyl)azetidine-3-carboxylic acid] are 90% and 130 nM.
On to `O=C(O)C1CN(Cc2ccc(-c3nc4ccc(C5(c6ccccc6)CCCCC5)nc4s3)c(F)c2)C1` [Example 7, 1-((3-fluoro-4-(5-(1-phenylcyclohexyl)thiazolo[5,4-b]pyridine-2-yl)-phenyl)methyl)azetidine-3-carboxylic acid], for which the Emax was found to be 108% and the EC50 was 32.6 nM.
With `O=C(O)C1CN(Cc2ccc(-c3nc4ccc(C5(c6ccccc6)CCO5)nc4s3)c(F)c2)C1` (centres unmarked) [Example 9, 1-((3-fluoro-4-(5-(2-phenyloxetan-2-yl)thiazolo[5,4-b]pyridine-2-yl)-phenyl)methyl)azetidine-3-carboxylic acid], the Emax was determined as 144% and the EC50 came to 28.6 nM.
`O=C(O)C1CN(Cc2ccc(-c3nc4ccc(C5(c6ccccc6)CC5)cc4s3)c(F)c2)C1` [Example 10, 1-((3-fluoro-4-(6-(1-phenylcyclopropyl)benzo[d]thiazol-2-yl)phenyl)-methyl)azetidine-3-carboxylic acid hydrochloride]: the Emax is 97% and the concentration giving a half-maximal response (EC50) amounted to 42 nM.
On to `O=C(O)CCNCc1ccc(-c2nc3ccc(C4(c5ccccc5)CC4)nc3s2)c(F)c1` [Example 12, 3-((3-fluoro-4-(5-(1-phenylcyclopropyl)thiazolo[5,4-b]pyridine-2-yl)-phenyl)methylamino)propanoic acid hydrochloride], for which the Emax was 101% and the EC50 worked out at 2 nM.
For the compound `O=C(O)CCNC(=O)c1ccc(-c2nc3ccc(C4(c5ccccc5)CC4)nc3s2)c(F)c1` [Example 14, 3-(3-fluoro-4-(5-(1-phenylcyclopropyl)thiazolo[5,4-b]pyridine-2-yl)-benzamido)propanoic acid], the Emax came to 66% and the concentration for a half-maximal effect (EC50) came to 20.6 nM.
The corresponding values for `Cc1cc(-c2nc3ccc(C4(c5ccccc5)CC4)nc3s2)cc(C)c1CN1CC(C(=O)O)C1` [Example 17, 1-((2,6-dimethyl-4-(5-(1-phenylcyclopropyl)thiazolo[5,4-b]-pyridin-2-yl)phenyl)methyl)azetidine-3-carboxylic acid] are 148% and 21 nM.
Turning to `Cc1cc(CN2CC(C(=O)O)C2)ccc1-c1nc2ccc(C3(c4ccccc4)CC3)nc2s1` [Example 19, 1-((3-methyl-4-(5-(1-phenylcyclopropyl)thiazolo[5,4-b]pyridine-2-yl)phenyl)methyl)azetidine-3-carboxylic acid], the Emax amounted to 121% and the 50% effective concentration (EC50) came to 1.4 nM.
As for `NC1(c2ccc(-c3nc4ccc(C5(c6ccccc6)CC5)nc4s3)c(F)c2)CC1` [Example 20, 1-(3-fluoro-4-(5-(1-phenylcyclopropyl)thiazolo[5,4-b]pyridine-2-yl)phenyl)cyclopropanamine], the Emax is 160% and the half-maximal effective concentration (EC50) was found to be 31.2 nM.
The corresponding values for `CC(C)(N)c1ccc(-c2nc3ccc(C4(c5ccccc5)CC4)nc3s2)c(F)c1` [Example 22, 2-(3-fluoro-4-(5-(1-phenylcyclopropyl)thiazolo[5,4-b]pyridine-2-yl)phenyl)-propan-2-amine] are 157% and 192 nM.
With `O=C(O)CCc1ccc(-c2nc3ccc(C4(c5ccccc5)CC4)nc3s2)c(F)c1` [Example 27, 3-(3-fluoro-4-(5-(1-phenylcyclopropyl)thiazolo[5,4-b]pyridine-2-yl)-phenyl)propanoic acid], the Emax turned out to be 81% and the EC50 was determined as 5880 nM.
As for `OCC(CO)Cc1ccc(-c2nc3ccc(C4(c5ccccc5)CC4)nc3s2)c(F)c1` [Example 29, 2-(3-fluoro-4-(5-(1-phenylcyclopropyl)thiazolo[5,4-b]pyridine-2-yl)benzyl)propane-1,3-diol], the Emax is 91% and the EC50 came out at 334 nM.
Consider `O=C(O)C1(C(=O)O)CC(Cc2ccc(-c3nc4ccc(C5(c6ccccc6)CC5)nc4s3)c(F)c2)C1` [Example 30, 3-(3-fluoro-4-(5-(1-phenylcyclopropyl)thiazolo[5,4-b]pyridine-2-yl)benzyl)cyclobutane-1,1-dicarboxylic acid], for which the Emax came out at 79% and the EC50 is 2910 nM.
For `OC1CN(Cc2ccc(-c3nc4ccc(C5(c6ccccc6)CC5)nc4s3)c(F)c2)C1` [Example 35, 1-(3-fluoro-4-(5-(1-phenylcyclopropyl)thiazolo[5,4-b]pyridin-2-yl)benzyl)-azetidin-3-ol], in that order: 90% and 18.7 nM.
For `O=C(O)C1CN(Cc2ccc(-c3nc4ccc(C5(c6ccccc6F)CC5)nc4s3)c(F)c2)C1` [Example 38, 1-(3-fluoro-4-(5-(1-(2-fluorophenyl)cyclopropyl)thiazolo[5,4-b]pyridine-2-yl)-benzyl)azetidine-3-carboxylic acid], in that order: 111% and 3.7 nM.
As for `O=C(O)C1CN(Cc2ccc(-c3nc4ccc(C5(c6ccc(O)cc6)CC5)nc4s3)c(F)c2)C1` [Example 39, 1-(3-fluoro-4-(5-(1-(4-hydroxyphenyl)cyclopropyl)thiazolo[5,4-b]pyridine-2-yl)benzyl)azetidine-3-carboxylic acid], the Emax was determined as 83% and the EC50 is 21.2 nM.
With `NC(CO)(CO)CCc1ccc(-c2nc3ccc(C4(c5ccccc5)CC4)nc3s2)c(F)c1` [Example 42, 2-amino-2-(3-fluoro-4-(5-(1-phenylcyclopropyl)thiazolo[5,4-b]pyridin-2-yl)phenethyl)propane-1,3-diol hydrochloride], the Emax is 119% and the 50% effective concentration (EC50) is 10.2 nM.
For `O=C(O)C1CN(Cc2ccc(-c3nc4nc(C5(c6ccccc6)CC5)ccc4s3)c(F)c2)C1` [Example 44, 1-(3-fluoro-4-(5-(1-phenylcyclopropyl)thiazolo[4,5-b]pyridin-2-yl)-benzyl)azetidine-3-carboxylic acid trifluoroacetic acid salt], in that order: 113% and 59.7 nM.
The corresponding values for `O=C(O)C1CN(Cc2ccc(-c3nc4cnc(C5(c6ccccc6)CC5)cc4s3)c(F)c2)C1` [Example 45, 1-(3-fluoro-4-(6-(1-phenylcyclopropyl)thiazolo[4,5-c]pyridine-2-yl)benzyl)azetidine-3-carboxylic acid trifluoroacetic acid salt] are 103% and 99.7 nM.
`Nc1cc(CN2CC(C(=O)O)C2)ccc1-c1nc2ccc(C3(c4ccccc4)CC3)nc2s1` [Example 46, 1-(3-amino-4-(5-(1-phenylcyclopropyl)thiazolo[5,4-b]pyridin-2-yl)benzyl)azetidine-3-carboxylic acid]: the Emax is 99% and the EC50 amounted to 4.8 nM.
The corresponding values for `O=C(O)C1CN(Cc2ccc(-c3nc4ccc(C5(C6CCCCC6)CC5)nc4s3)c(F)c2)C1` [Example 47, 1-(4-(5-(1-cyclohexylcyclopropyl)thiazolo[5,4-b]pyridine-2-yl)-3-fluorobenzyl)azetidine-3-carboxylic acid trifluoroacetic acid salt] are 117% and 5.9 nM.
The corresponding values for `O=C(O)C1CN(Cc2ccc(-c3nc4ccc(C5(C6CCOCC6)CC5)nc4s3)c(F)c2)C1` [Example 52, 1-(3-fluoro-4-(5-(1-(tetrahydro-2H-pyran-4-yl)cyclopropyl)thiazolo[5,4-b]pyridine-2-yl)benzyl)azetidine-3-carboxylic acid trifluoroacetic acid salt] are 109% and 1190 nM.
